In ChEMBL document CHEMBL2434906, “Synthesis, characterization, and anticancer studies of S and N alkyl piperazine-substituted positional isomers of 1,2,4-triazole derivatives” (Med Chem Res, 2013):

Assays:
Assay type in all cases: functional, cell-based
HL-60 = assay: Cytotoxicity against human HL60 cells after 24 hrs by MTT assay; conditions: HL-60, 24 h
MCF7 = assay: Cytotoxicity against human MCF7 cells after 24 hrs by MTT assay; conditions: MCF7, 24 h
COLO 205 = assay: Cytotoxicity against human COLO205 cells after 24 hrs by MTT assay; conditions: COLO 205, 24 h
THP-1 = assay: Cytotoxicity against human THP1 cells after 24 hrs by MTT assay; conditions: THP-1, 24 h
U-937 = assay: Cytotoxicity against human U937 cells after 24 hrs by MTT assay; conditions: U-937, 24 h

SMILES | IC50 (HL-60) [µM] | IC50 (MCF7) [µM] | IC50 (COLO 205) [µM] | IC50 (THP-1) [µM] | IC50 (U-937) [µM]
CC(C)(C)c1ccc(-c2nn(CCCN3CCN(c4cccc(Cl)c4)CC3)c(=S)[nH]2)cc1 | > 300 | > 300 | > 300 | > 300 | > 300
Cc1ccc(-c2nn(CCCN3CCN(c4cccc(Cl)c4)CC3)c(=S)[nH]2)cc1 | > 300 | > 300 | > 300 | > 300 | > 300
COc1ccc(-c2nn(CCCN3CCOCC3)c(=S)[nH]2)cc1OC | > 300 | > 300 | > 300 | > 300 | > 300
CCN1CCN(CCCn2nc(-c3ccc(OC)c(OC)c3)[nH]c2=S)CC1 | > 300 | > 300 | > 300 | > 300 | > 300
CCN1CCN(CCCSc2nnc(-c3ccc(C)cc3)[nH]2)CC1 | > 300 | > 300 | > 300 | > 300 | > 300
Clc1ccc(-c2nnc(SCCCN3CCN(c4cccc(Cl)c4)CC3)[nH]2)cc1 | > 300 | > 300 | > 300 | > 300 | > 300
CCN1CCN(CCCSc2nnc(-c3ccccc3Cl)[nH]2)CC1 | > 300 | > 300 | > 300 | > 300 | > 300
Clc1ccccc1-c1nnc(SCCCN2CCN(c3ccccn3)CC2)[nH]1 | > 300 | > 300 | > 300 | > 300 | > 300
COc1ccc(-c2nn(CCCN3CCN(c4ccccn4)CC3)c(=S)[nH]2)cc1 | 115 | > 300 | > 300 | > 300 | > 300
Fc1ccc(-c2nn(CCCN3CCN(Cc4ccccc4)CC3)c(=S)[nH]2)cc1 | > 300 | 128 | 111 | 160 | > 300
S=c1[nH]c(-c2ccc(Cl)cc2)nn1CCCN1CCN(c2cccc(Cl)c2)CC1 | 6.67 | > 300 | > 300 | > 300 | 28.2
CC(C)(C)c1ccc(-c2nn(CCCN3CCN(c4ccccc4)CC3)c(=S)[nH]2)cc1 | > 300 | > 300 | > 300 | 147 | 88.9
c1ccc(Cc2nnc(SCCCN3CCN(c4ccccn4)CC3)[nH]2)cc1 | > 300 | > 300 | > 300 | > 300 | 163
Clc1cccc(-c2nnc(SCCCN3CCN(c4ncccn4)CC3)[nH]2)c1 | 18.5 | > 300 | > 300 | > 300 | 49.1
Cc1cccc(-c2nnc(SCCCN3CCN(c4ccccn4)CC3)[nH]2)c1 | 29.4 | > 300 | > 300 | > 300 | 52.3
Cc1cccc(-c2nnc(SCCCN3CCN(c4ccccc4)CC3)[nH]2)c1 | > 300 | > 300 | > 300 | 248 | > 300
Fc1ccc(-c2nnc(SCCCN3CCN(Cc4ccccc4)CC3)[nH]2)cc1 | > 300 | 184 | 181 | 255 | 124
Clc1ccc(-c2nnc(SCCCN3CCN(c4ncccn4)CC3)[nH]2)cc1 | 105 | > 300 | > 300 | > 300 | 102
Cc1ccc(-c2nnc(SCCCN3CCN(c4cccc(Cl)c4)CC3)[nH]2)cc1 | > 300 | > 300 | 139 | > 300 | 257
CC(C)(C)c1ccc(-c2nnc(SCCCN3CCN(c4ccccc4)CC3)[nH]2)cc1 | > 300 | > 300 | > 300 | 97.6 | 49.3
CC(C)(C)c1ccc(-c2nnc(SCCCN3CCOCC3)[nH]2)cc1 | > 300 | 287 | 155 | > 300 | 156
COc1cc([C@@H]2c3cc4c(cc3[C@@H](O[C@@H]3O[C@@H]5CO[C@@H](C)O[C@H]5[C@H](O)[C@H]3O)[C@H]3COC(=O)[C@H]23)OCO4)cc(OC)c1O [ETOPOSIDE] | 1.84 | 29.5 |  |  | 10.4
